Test results: patent US20090275626A1, “PHARMACEUTICAL COMPOSITION FOR PREVENTION OR TREATMENT OF NEUROGENIC PAIN” (KISSEI PHARMACEUTICAL CO., LTD., priority 2005, published 2009)
“Also recorded” adds a separate entry of the source.

Tests used:
Format in all cases: in vivo, rat
Seltzer model rats = assay: Nociceptive threshold in Seltzer model rats (Test Example 3, Randall-Selitto method); details: for nociceptive threshold of the nerve ligation group: 1 hour after final administration; for analgesic effect compared with carbamazepine: Compounds 1, 2: 1 mg/kg s.c., Compound 3 hydrochloride: 10 mg/kg oral, carbamazepine 10 mg/kg oral, 2 weeks
Excerpt: Fifty-eight, 7-week old male SD rats were anesthetized with pentobarbital (Nembutal injection (a registered trademark)), and the right sciatic nerve was exposed. In the nerve ligation group (48 rats), half of the dorsal portion of the nerve was ligated using 6-0 nylon suture. In Normal group (10 rats), the sciatic nerve was only exposed. From the following day of the model preparation, each test article (Compound 1, Compound 2 or Compound 3 hydrochloride) was repeatedly administered once a day for 2 weeks. Compound 1 (10 rats) and Compound 2 (10 rats) were administered subcutaneously, and Compound 3 hydrochloride (9 rats) and carbamazepine (10 rats) were administered orally. Control group (9 rats) and Normal group were subcutaneously administered physiological saline. One hour after the final administration of the test articles, the nociceptive threshold against pressure stimulation given to the right hind-paw of rats was measured by Randall-Selitto method, and compared with Control group.

[1] = tested on: STZ-induced diabetic rats; assay: Nociceptive threshold in STZ-induced diabetic rats, repeated subcutaneous administration over 10 weeks (Test Example 2, Randall-Selitto method); details: for nociceptive threshold after 14-day repeated administration: 0.1, 0.3 and 1 mg/kg subcutaneous once a day, right hind-paw pressure, vs Control group; for neuroprotective effects: concluded from controlled changes of nociceptive threshold over 10 weeks (early hyperalgesia, late hypoalgesia); for changes of the nociceptive threshold over 10 weeks after STZ administration (repeated-measures analysis of variance vs Control group): subcutaneous once a day, measured every 2 weeks until 10th week, P<0.05
Protocol: STZ (50 mg/kg) was administered intravenously to male SD stain rats to induce diabetes mellitus. From the following day of the STZ administration, test article (Compound 1 or 2) was administered subcutaneously once a day, repeatedly. Normal and Control groups were administered subcutaneously physiological saline (9-10 rats in each group). Before the STZ administration and every 2 weeks until the 10th week after STZ administration, the nociceptive threshold against pressure stimulation given to the right hind-paw of rats was measured by Randall-Selitto method, and compared with Control group.
The changes of the nociceptive thresholds (mean±SE) in each group over 10 weeks after administration of each drug are shown in FIG. 2 and FIG. 3.

[2] = tested on: STZ-induced diabetic rats; assay: Nociceptive threshold in STZ-induced diabetic rats, repeated oral administration (Test Example 1, Randall-Selitto method); details: Compound 3 hydrochloride 10 mg/kg oral twice a day, 14-day repeated administration, 1 hour after final administration, right hind-paw pressure, vs Control group
Protocol: STZ (50 mg/kg) was administered intravenously to 7-week old male SD stain rats to induce diabetes mellitus. From the following day of the STZ administration, test article (Compound 3 hydrochloride) was administered orally twice a day, repeatedly (10 rats in each group). Normal and Control groups were administered the medium (0.5% methylcellulose). The nociceptive threshold against pressure stimulation given to the right hind-paw of rats after 2 weeks administration (1 hour after the final administration) of test article was measured by Randall-Selitto method, and compared with Control group.

[3] = 1 mg/kg subcutaneous once a day for 2 weeks
[4] = 10 mg/kg oral once a day for 2 weeks

Row | Structure (SMILES) | nociceptive threshold of the nerve ligation group (Seltzer model rats; [3]) | analgesic effect compared with carbamazepine (Seltzer model rats) | nociceptive threshold after 14-day repeated administration [1] | neuroprotective effects [1] | changes of the nociceptive threshold over 10 weeks after STZ administration (repeated-measures analysis of variance vs Control group) ([1]; disodium salt) | nociceptive threshold of the nerve ligation group (Seltzer model rats; [4]) | changes of the nociceptive threshold over 10 weeks after STZ administration (repeated-measures analysis of variance vs Control group) ([1]; sodium salt) | nociceptive threshold [2]
1 | C[C@H](Cc1ccc2c(c1)OC(C(=O)[O-])(C(=O)[O-])O2)NC[C@H](O)c1cccc(Cl)c1.[Na+].[Na+] [Compound 2] | significantly improved | comparable to that of carbamazepine | increased clearly in a dose-dependent manner at 0.3 mg/kg or above | have neuroprotective effects | significant differences in comparison with Control group; also recorded: significant difference | – | – | –
2 | NC(=O)N1c2ccccc2C=Cc2ccccc21 [carbamazepine, reference compound] | – | – | – | – | – | analgesic effect | – | –
3 | C[C@H](Cc1ccc(OCC(=O)[O-])cc1)NC[C@H](O)c1cccc(Cl)c1.[Na+] [Compound 1] | significantly improved | comparable to that of carbamazepine | increased clearly in a dose-dependent manner at 0.3 mg/kg or above | have neuroprotective effects | – | – | significant differences in comparison with Control group; also recorded: significant difference | –
4 | Cc1cc(-c2ccc(C(=O)O)c(C(C)C)c2)cc(C)c1OCCN[C@@H](C)[C@H](O)c1ccc(O)cc1 [Compound 3, 4′-[2-[(1S,2R)-2-hydroxy-2-(4-hydroxyphenyl)-1-methylethylamino]ethoxy]-3-isopropyl-3′,5′-dimethylbiphenyl-4-carboxylic acid] | – | comparable to that of carbamazepine | – | – | – | significantly improved | – | increased remarkably
